This passage reports MIC results from patent EP0112481A1, “Beta-lactam compound” (KYOWA HAKKO KOGYO CO., LTD, priority 1982, dated 1984).

Assay in all cases: Antibacterial effect, dilution method on Mueller-Hinton agar
Assay type in all cases: cell-based

Assay [1] has as its system Staphylococcus aureus 209-P. The following applies: Mueller-Hinton agar (pH 7.0).
In assay [2] the test system is Escherichia coli NIHJJC-2. The following applies: NIHJJC2, Mueller-Hinton agar (pH 7.0).
Assay [3] deals with Krebsiella pneumoniae 8045. The following applies: Mueller-Hinton agar (pH 7.0).
Another assay has as its system Serratia marcescens T-26. Conditions: T26, Mueller-Hinton agar (pH 7.0).
The next assay relates to Proteus mirabilis 1287. Conditions: Mueller-Hinton agar (pH 7.0).
The next assay concerns Proteus vulgaris 6897. The following applies: Mueller-Hinton agar (pH 7.0).
The subject of assay [4] is Enterobacter cloacae F 1510. Conditions: F1510, Mueller-Hinton agar (pH 7.0).
Assay [5] has as its system Citrobacter freundii F 1526. Conditions: F1526, Mueller-Hinton agar (pH 7.0).

Converted amounts (≈) assume the structure as drawn.

As usually defined, the MIC is the smallest concentration in the dilution series that meets the test's criterion for growth inhibition. For the molecule `CON=C(C(=O)NC1C(=O)N2C(C(=O)O)=C(C=Cc3nnnn3C)CCC12)c1csc(N)n1` (racemic) [Compound of Ref. Ex. 9, (±)-6,7-cis-7-[2-(2-aminothiazol-4-yl)-2-syn-methoxyiminoacetamido]-3-[2-(1-methyl-1H-tetrazol-5-yl)vinyl]-1-azabicyclo [4.2.0] oct-2-en-8-oxo-2-carboxylic acid], the MIC in assay [1] came out at 1.56 µg/mL (≈ 3.29 µM); in assay [2] it was 0.01 µg/mL (≈ 0.0211 µM); in assay [3], 0.1 µg/mL (≈ 0.211 µM); with Serratia marcescens T-26, 1.56 µg/mL (≈ 3.29 µM); in the assay with Proteus mirabilis 1287 it was 0.01 µg/mL (≈ 0.0211 µM); with Proteus vulgaris 6897, 0.01 µg/mL (≈ 0.0211 µM). Besides, the MIC in assay [4] and in assay [5] was 0.2 µg/mL (≈ 0.422 µM) in each case.
Take `CCOC(=O)C=CC1=C(C(=O)O)N2C(=O)C(NC(=O)C(=NOC)c3csc(N)n3)C2CC1` (racemic) [Compound of Ref. Ex. 10, (±)-6,7-cis-7-[2-(2-aminothiazol-4-yl)-2-syn-methoxyiminoacetamido]-3-(2-ethoxycarbonvlviayl)-1-azabicyclo [4.2.0]oct-2-en-8-oxo-2-carboxylic acid]: the MIC in assay [1] was determined as 6.25 µg/mL (≈ 13.5 µM); in assay [2] it was 0.2 µg/mL (≈ 0.432 µM); in assay [3], 0.39 µg/mL (≈ 0.841 µM); in the assay with Serratia marcescens T-26 it was 3.13 µg/mL (≈ 6.75 µM); against Proteus mirabilis 1287 it was 0.1 µg/mL (≈ 0.216 µM); with Proteus vulgaris 6897, 0.01 µg/mL (≈ 0.0216 µM). Also, the figures for the MIC in assay [4] and in assay [5] were 1.56 µg/mL (≈ 3.37 µM) and 0.78 µg/mL (≈ 1.68 µM), respectively.
